Test results taken from PubChem BioAssay (NCI).
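Values below derive from 48-hour exposures of cells grown in 96-well plates, with endpoints linearly interpolated between the two concentrations bracketing the appropriate inhibition level. Abbreviation: GI50, concentration required for 50% inhibition of growth. At the TGI there is no net growth.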

Legend:
Assay in all cases: growth of human tumour cells (NCI), 48 h
SN12C renal = system: SN12C renal
786-0 renal = system: 786-0 renal
BT-549 breast = system: BT-549 breast
SF-539 CNS = system: SF-539 CNS
SK-MEL-2 melanoma = system: SK-MEL-2 melanoma
NCI-H522 lung = system: NCI-H522 lung
OVCAR-8 ovarian = system: OVCAR-8 ovarian
HOP-62 NSCLC = system: HOP-62 NSCLC
HCT-116 colon = system: HCT-116 colon
A549 NSCLC = system: A549 NSCLC
UACC-62 melanoma = system: UACC-62 melanoma
KM12 colon = system: KM12 colon
CAKI-1 renal = system: CAKI-1 renal
SF-295 CNS = system: SF-295 CNS
ACHN renal = system: ACHN renal
UACC-257 melanoma = system: UACC-257 melanoma
HT29 colon = system: HT29 colon
HL-60(TB) leukemia = system: HL-60(TB) leukemia
UO-31 renal = system: UO-31 renal
SW-620 colon = system: SW-620 colon
MALME-3M melanoma = system: MALME-3M melanoma
OVCAR-3 ovarian = system: OVCAR-3 ovarian
NCI-H226 lung = system: NCI-H226 lung
SK-MEL-5 melanoma = system: SK-MEL-5 melanoma
A498 renal = system: A498 renal
OVCAR-4 ovarian = system: OVCAR-4 ovarian
HCT-15 colon = system: HCT-15 colon
NCI-H460 lung = system: NCI-H460 lung
COLO 205 colon = system: COLO 205 colon
PC-3 prostate = system: PC-3 prostate
MDA-MB-231 breast = system: MDA-MB-231 breast
LOX IMVI melanoma = system: LOX IMVI melanoma
M14 melanoma = system: M14 melanoma
NCI-H23 lung = system: NCI-H23 lung
MDA-MB-435 = system: MDA-MB-435
SR leukemia = system: SR leukemia
OVCAR-5 ovarian = system: OVCAR-5 ovarian
SF-268 CNS = system: SF-268 CNS
TK-10 renal = system: TK-10 renal
EKVX NSCLC = system: EKVX NSCLC
K-562 leukemia = system: K-562 leukemia
SK-MEL-28 melanoma = system: SK-MEL-28 melanoma
DU-145 prostate = system: DU-145 prostate
MOLT-4 leukemia = system: MOLT-4 leukemia
SNB-75 CNS = system: SNB-75 CNS
RXF 393 renal = system: RXF 393 renal
T-47D breast = system: T-47D breast
U251 CNS = system: U251 CNS
SNB-19 CNS = system: SNB-19 CNS
HS 578T breast = system: HS 578T breast
HCC-2998 colon = system: HCC-2998 colon
NCI/ADR-RES ovarian = system: NCI/ADR-RES ovarian
HOP-92 NSCLC = system: HOP-92 NSCLC
SK-OV-3 ovarian = system: SK-OV-3 ovarian

How did the GI50 (SN12C renal) turn out when COc1cc(-c2ccc(=O)oc2C#Cc2ccccc2)cc(OC)c1OC was run?
Its GI50 is 15.9 µM.

And the TGI (SN12C renal)?
The TGI was > 100 µM.

What about the GI50 (786-0 renal) of the same molecule?
Its GI50 is 32.6 µM.

And the TGI (786-0 renal)?
Its TGI is > 100 µM.

What about the GI50 (BT-549 breast) of the same molecule?
The GI50 was 19.2 µM.

And the TGI (BT-549 breast)?
The TGI was 63.4 µM.

And the GI50 (SF-539 CNS)?
Its GI50 is 12.7 µM.

And the TGI (SF-539 CNS)?
The TGI was > 100 µM.

What about the GI50 (SK-MEL-2 melanoma) of the same molecule?
Its GI50 is 23.2 µM.

And the TGI (SK-MEL-2 melanoma)?
The TGI was > 100 µM.

And the GI50 (NCI-H522 lung)?
The GI50 was 44.5 µM.

And the TGI (NCI-H522 lung)?
Its TGI is > 100 µM.

What about the GI50 (OVCAR-8 ovarian) of the same molecule?
Its GI50 is 52.5 µM.

What about the TGI (OVCAR-8 ovarian) of the same molecule?
Its TGI is > 100 µM.

And the GI50 (HOP-62 NSCLC)?
The GI50 was 19 µM.

And the TGI (HOP-62 NSCLC)?
The TGI was 66.8 µM.

What about the GI50 (HCT-116 colon) of the same molecule?
The GI50 was 1.66 µM.

What about the TGI (HCT-116 colon) of the same molecule?
Its TGI is > 100 µM.

What about the GI50 (A549 NSCLC) of the same molecule?
Its GI50 is 3.22 µM.

And the TGI (A549 NSCLC)?
Its TGI is 91.1 µM.

What about the GI50 (UACC-62 melanoma) of the same molecule?
The GI50 was 11.6 µM.

And the TGI (UACC-62 melanoma)?
The TGI was > 100 µM.

And the GI50 (KM12 colon)?
Its GI50 is 34.6 µM.

What about the TGI (KM12 colon) of the same molecule?
The TGI was > 100 µM.

What about the GI50 (CAKI-1 renal) of the same molecule?
Its GI50 is 27.4 µM.

And the TGI (CAKI-1 renal)?
The TGI was > 100 µM.

And the GI50 (SF-295 CNS)?
The GI50 was 11.2 µM.

What about the TGI (SF-295 CNS) of the same molecule?
Its TGI is 35.5 µM.

And the GI50 (ACHN renal)?
Its GI50 is 14.8 µM.

And the TGI (ACHN renal)?
The TGI was 90.2 µM.

What about the GI50 (UACC-257 melanoma) of the same molecule?
Its GI50 is 56.7 µM.

And the TGI (UACC-257 melanoma)?
Its TGI is > 100 µM.

What about the GI50 (HT29 colon) of the same molecule?
The GI50 was 16.6 µM.

What about the TGI (HT29 colon) of the same molecule?
The TGI was > 100 µM.

And the GI50 (HL-60(TB) leukemia)?
The GI50 was 8.56 µM.

What about the TGI (HL-60(TB) leukemia) of the same molecule?
Its TGI is > 100 µM.

What about the GI50 (UO-31 renal) of the same molecule?
Its GI50 is 9.1 µM.

And the TGI (UO-31 renal)?
The TGI was > 100 µM.

And the GI50 (SW-620 colon)?
Its GI50 is 13.3 µM.

What about the TGI (SW-620 colon) of the same molecule?
Its TGI is > 100 µM.

What about the GI50 (MALME-3M melanoma) of the same molecule?
The GI50 was > 100 µM.

What about the TGI (MALME-3M melanoma) of the same molecule?
Its TGI is > 100 µM.

What about the GI50 (OVCAR-3 ovarian) of the same molecule?
Its GI50 is 36.4 µM.

And the TGI (OVCAR-3 ovarian)?
The TGI was > 100 µM.

What about the GI50 (NCI-H226 lung) of the same molecule?
Its GI50 is 22.8 µM.

And the TGI (NCI-H226 lung)?
The TGI was > 100 µM.

And the GI50 (SK-MEL-5 melanoma)?
The GI50 was 3.49 µM.

What about the TGI (SK-MEL-5 melanoma) of the same molecule?
The TGI was > 100 µM.

What about the GI50 (A498 renal) of the same molecule?
Its GI50 is 30.4 µM.

And the TGI (A498 renal)?
The TGI was 70.6 µM.

And the GI50 (OVCAR-4 ovarian)?
Its GI50 is > 100 µM.

What about the TGI (OVCAR-4 ovarian) of the same molecule?
Its TGI is > 100 µM.

What about the GI50 (HCT-15 colon) of the same molecule?
The GI50 was 13.8 µM.

What about the TGI (HCT-15 colon) of the same molecule?
Its TGI is > 100 µM.

And the GI50 (NCI-H460 lung)?
The GI50 was > 100 µM.

And the TGI (NCI-H460 lung)?
The TGI was > 100 µM.

What about the GI50 (COLO 205 colon) of the same molecule?
Its GI50 is 34.1 µM.

What about the TGI (COLO 205 colon) of the same molecule?
The TGI was > 100 µM.

And the GI50 (PC-3 prostate)?
The GI50 was > 100 µM.

And the TGI (PC-3 prostate)?
The TGI was > 100 µM.

And the GI50 (MDA-MB-231 breast)?
Its GI50 is 12.4 µM.

And the TGI (MDA-MB-231 breast)?
The TGI was 35.8 µM.

What about the GI50 (LOX IMVI melanoma) of the same molecule?
Its GI50 is 1.57 µM.

What about the TGI (LOX IMVI melanoma) of the same molecule?
Its TGI is > 100 µM.

And the GI50 (M14 melanoma)?
The GI50 was 48.9 µM.

What about the TGI (M14 melanoma) of the same molecule?
The TGI was > 100 µM.

What about the GI50 (NCI-H23 lung) of the same molecule?
The GI50 was 36.9 µM.

What about the TGI (NCI-H23 lung) of the same molecule?
The TGI was > 100 µM.

And the GI50 (MDA-MB-435)?
The GI50 was 14.6 µM.

And the TGI (MDA-MB-435)?
The TGI was > 100 µM.

What about the GI50 (SR leukemia) of the same molecule?
The GI50 was 2.4 µM.

What about the TGI (SR leukemia) of the same molecule?
Its TGI is > 100 µM.

And the GI50 (OVCAR-5 ovarian)?
Its GI50 is > 100 µM.

What about the TGI (OVCAR-5 ovarian) of the same molecule?
Its TGI is > 100 µM.

What about the GI50 (SF-268 CNS) of the same molecule?
Its GI50 is 12.7 µM.

What about the TGI (SF-268 CNS) of the same molecule?
Its TGI is > 100 µM.

What about the GI50 (TK-10 renal) of the same molecule?
The GI50 was 29 µM.

What about the TGI (TK-10 renal) of the same molecule?
Its TGI is > 100 µM.

And the GI50 (EKVX NSCLC)?
Its GI50 is 83.4 µM.

And the TGI (EKVX NSCLC)?
The TGI was > 100 µM.

What about the GI50 (K-562 leukemia) of the same molecule?
The GI50 was 86.1 µM.

And the TGI (K-562 leukemia)?
The TGI was > 100 µM.

And the GI50 (SK-MEL-28 melanoma)?
The GI50 was 26.7 µM.

What about the TGI (SK-MEL-28 melanoma) of the same molecule?
Its TGI is > 100 µM.

What about the GI50 (DU-145 prostate) of the same molecule?
The GI50 was 28.3 µM.

What about the TGI (DU-145 prostate) of the same molecule?
The TGI was > 100 µM.

What about the GI50 (MOLT-4 leukemia) of the same molecule?
The GI50 was 13.2 µM.

And the TGI (MOLT-4 leukemia)?
Its TGI is > 100 µM.

And the GI50 (SNB-75 CNS)?
The GI50 was 12.1 µM.

What about the TGI (SNB-75 CNS) of the same molecule?
The TGI was 32.6 µM.

And the GI50 (RXF 393 renal)?
Its GI50 is 0.945 µM.

And the TGI (RXF 393 renal)?
The TGI was 19.9 µM.

What about the GI50 (T-47D breast) of the same molecule?
The GI50 was 45.2 µM.

And the TGI (T-47D breast)?
Its TGI is > 100 µM.

What about the GI50 (U251 CNS) of the same molecule?
The GI50 was 8.09 µM.

And the TGI (U251 CNS)?
Its TGI is 34.4 µM.

And the GI50 (SNB-19 CNS)?
Its GI50 is 29.9 µM.

What about the TGI (SNB-19 CNS) of the same molecule?
Its TGI is 93.3 µM.

What about the GI50 (HS 578T breast) of the same molecule?
The GI50 was 6.02 µM.

What about the TGI (HS 578T breast) of the same molecule?
Its TGI is 48.4 µM.

And the GI50 (HCC-2998 colon)?
Its GI50 is > 100 µM.

And the TGI (HCC-2998 colon)?
Its TGI is > 100 µM.

And the GI50 (NCI/ADR-RES ovarian)?
The GI50 was > 100 µM.

What about the TGI (NCI/ADR-RES ovarian) of the same molecule?
Its TGI is > 100 µM.

What about the GI50 (HOP-92 NSCLC) of the same molecule?
Its GI50 is 16.1 µM.

What about the TGI (HOP-92 NSCLC) of the same molecule?
The TGI was 39.2 µM.

And the GI50 (SK-OV-3 ovarian)?
The GI50 was 28.5 µM.

And the TGI (SK-OV-3 ovarian)?
The TGI was 92.9 µM.

Which TGI (CAKI-1 renal) does the source give for CC(=O)OCC1OC(n2c(=S)n(-c3ccccc3)c(=O)c3ccccc32)C(OC(C)=O)C(OC(C)=O)C1OC(C)=O (stereo unspecified) here?
The TGI was > 100 µM.

What about the TGI (OVCAR-4 ovarian) of the same molecule?
Its TGI is > 100 µM.

What about the TGI (HOP-92 NSCLC) of the same molecule?
The TGI was > 100 µM.
